From PubChem BioAssay AID1259407 (Chemical Carcinogenesis Research Information System (CCRIS), 2018)
The source made the active and inactive calls. No rule for the calls is given here.

Test system: CCRIS mutagenicity, Ames/micronucleus/aberration tests
Assay: CCRIS mutagenicity studies
[1] = Test System: AMES SALMONELLA TYPHIMURIUM, Strain/Indicator: TA98, Metabolic Activation: NONE, Method: STANDARD PLATE
[2] = Test System: AMES SALMONELLA TYPHIMURIUM, Strain/Indicator: TA100, Metabolic Activation: NONE, Method: STANDARD PLATE

O=[N+]([O-])c1ccc(O)c([N+](=O)[O-])c1
mutagenic call (End Point: IN VITRO CHROMOSOMAL ABERRATIONS, Test System: CHO CELLS, Metabolic Activation: NONE): active; positive | mutagenic call (End Point: IN VITRO CHROMOSOMAL ABERRATIONS, Test System: HUMAN PERIPHERAL LYMPHOCYTES, Metabolic Activation: NONE): active; positive | mutagenic call (End Point: IN VITRO CHROMOSOMAL ABERRATIONS, Test System: TK6 HUMAN LYMPHOBLASTS, Metabolic Activation: NONE): inactive; negative | mutagenic call (End Point: In vitro micronucleus, Test System: Mouse lymphoma L5178Y cells, Metabolic Activation: None): active; positive | mutagenic call (Test System: AMES SALMONELLA TYPHIMURIUM, Strain/Indicator: TA97, Metabolic Activation: HAMSTER, LIVER, S-9, AROCLOR 1254 (10%), Method: PREINCUBATION): inactive; negative | mutagenic call (Test System: AMES SALMONELLA TYPHIMURIUM, Strain/Indicator: TA97, Metabolic Activation: HAMSTER, LIVER, S-9, AROCLOR 1254 (30%), Method: PREINCUBATION): inactive; negative | mutagenic call (Test System: AMES SALMONELLA TYPHIMURIUM, Strain/Indicator: TA97, Metabolic Activation: NONE, Method: PREINCUBATION): inactive; negative | mutagenic call (Test System: AMES SALMONELLA TYPHIMURIUM, Strain/Indicator: TA97, Metabolic Activation: RAT, LIVER, S-9, AROCLOR 1254 (10%), Method: PREINCUBATION): inactive; negative | mutagenic call (Test System: AMES SALMONELLA TYPHIMURIUM, Strain/Indicator: TA97, Metabolic Activation: RAT, LIVER, S-9, AROCLOR 1254 (30%), Method: PREINCUBATION): inactive; negative | mutagenic call (Test System: AMES SALMONELLA TYPHIMURIUM, Strain/Indicator: TA98, Metabolic Activation: HAMSTER, LIVER, S-9, AROCLOR 1254 (10%), Method: PREINCUBATION): inactive; negative | mutagenic call (Test System: AMES SALMONELLA TYPHIMURIUM, Strain/Indicator: TA98, Metabolic Activation: HAMSTER, LIVER, S-9, AROCLOR 1254 (30%), Method: PREINCUBATION): inactive; negative | mutagenic call (Test System: AMES SALMONELLA TYPHIMURIUM, Strain/Indicator: TA98, Metabolic Activation: NONE, Method: PREINCUBATION): inactive; negative | mutagenic call (Test System: AMES SALMONELLA TYPHIMURIUM, Strain/Indicator: TA98, Metabolic Activation: RAT, LIVER, S-9, AROCLOR 1254 (10%), Method: PREINCUBATION): inactive; negative | mutagenic call (Test System: AMES SALMONELLA TYPHIMURIUM, Strain/Indicator: TA98, Metabolic Activation: RAT, LIVER, S-9, AROCLOR 1254 (30%), Method: PREINCUBATION): inactive; negative | mutagenic call (Test System: AMES SALMONELLA TYPHIMURIUM, Strain/Indicator: TA98, Metabolic Activation: RAT, LIVER, S-9, KANECHLOR 500, Method: PREINCUBATION): inactive; negative | mutagenic call (Test System: AMES SALMONELLA TYPHIMURIUM, Strain/Indicator: TA98, Metabolic Activation: RAT, LIVER, S-9, PHENOBARBITAL AND BETA-NAPHTHOFLAVONE, Method: PREINCUBATION): inactive; negative | mutagenic call (Test System: AMES SALMONELLA TYPHIMURIUM, Strain/Indicator: TA100, Metabolic Activation: HAMSTER, LIVER, S-9, AROCLOR 1254 (10%), Method: PREINCUBATION): inactive; negative | mutagenic call (Test System: AMES SALMONELLA TYPHIMURIUM, Strain/Indicator: TA100, Metabolic Activation: HAMSTER, LIVER, S-9, AROCLOR 1254 (30%), Method: PREINCUBATION): inactive; negative | mutagenic call (Test System: AMES SALMONELLA TYPHIMURIUM, Strain/Indicator: TA100, Metabolic Activation: NONE, Method: PREINCUBATION): inactive; negative | mutagenic call (Test System: AMES SALMONELLA TYPHIMURIUM, Strain/Indicator: TA100, Metabolic Activation: RAT, LIVER, S-9, AROCLOR 1254 (10%), Method: PREINCUBATION): inactive; negative | mutagenic call (Test System: AMES SALMONELLA TYPHIMURIUM, Strain/Indicator: TA100, Metabolic Activation: RAT, LIVER, S-9, AROCLOR 1254 (30%), Method: PREINCUBATION): inactive; negative | mutagenic call (Test System: AMES SALMONELLA TYPHIMURIUM, Strain/Indicator: TA100, Metabolic Activation: RAT, LIVER, S-9, KANECHLOR 500, Method: PREINCUBATION): inactive; negative | mutagenic call (Test System: AMES SALMONELLA TYPHIMURIUM, Strain/Indicator: TA100, Metabolic Activation: RAT, LIVER, S-9, PHENOBARBITAL AND BETA-NAPHTHOFLAVONE, Method: PREINCUBATION): inactive; negative | mutagenic call (Test System: AMES SALMONELLA TYPHIMURIUM, Strain/Indicator: TA102, Metabolic Activation: NONE, Method: PREINCUBATION): inactive; negative | mutagenic call (Test System: AMES SALMONELLA TYPHIMURIUM, Strain/Indicator: TA102, Metabolic Activation: RAT, LIVER, S-9, PHENOBARBITAL AND BETA-NAPHTHOFLAVONE, Method: PREINCUBATION): inactive; negative | mutagenic call (Test System: AMES SALMONELLA TYPHIMURIUM, Strain/Indicator: TA104, Metabolic Activation: NONE, Method: PREINCUBATION): inactive; negative | mutagenic call (Test System: AMES SALMONELLA TYPHIMURIUM, Strain/Indicator: TA104, Metabolic Activation: RAT, LIVER, S-9, PHENOBARBITAL AND BETA-NAPHTHOFLAVONE, Method: PREINCUBATION): inactive; negative | mutagenic call (Test System: AMES SALMONELLA TYPHIMURIUM, Strain/Indicator: TA1535, Metabolic Activation: HAMSTER, LIVER, S-9, AROCLOR 1254 (10%), Method: PREINCUBATION): inactive; negative | mutagenic call (Test System: AMES SALMONELLA TYPHIMURIUM, Strain/Indicator: TA1535, Metabolic Activation: HAMSTER, LIVER, S-9, AROCLOR 1254 (30%), Method: PREINCUBATION): inactive; negative | mutagenic call (Test System: AMES SALMONELLA TYPHIMURIUM, Strain/Indicator: TA1535, Metabolic Activation: RAT, LIVER, S-9, AROCLOR 1254 (10%), Method: PREINCUBATION): inactive; negative | mutagenic call (Test System: AMES SALMONELLA TYPHIMURIUM, Strain/Indicator: TA1535, Metabolic Activation: RAT, LIVER, S-9, AROCLOR 1254 (30%), Method: PREINCUBATION): inactive; negative | mutagenic call (Test System: AMES SALMONELLA TYPHIMURIUM, Strain/Indicator: TA1535, Metabolic Activation: RAT, LIVER, S-9, PHENOBARBITAL AND BETA-NAPHTHOFLAVONE, Method: PREINCUBATION): inactive; negative | mutagenic call (Test System: AMES SALMONELLA TYPHIMURIUM, Strain/Indicator: TA1537, Metabolic Activation: HAMSTER, LIVER, S-9, AROCLOR 1254 (30%), Method: PREINCUBATION): inactive; negative | mutagenic call (Test System: AMES SALMONELLA TYPHIMURIUM, Strain/Indicator: TA1537, Metabolic Activation: NONE, Method: PREINCUBATION): inactive; negative | mutagenic call (Test System: AMES SALMONELLA TYPHIMURIUM, Strain/Indicator: TA1537, Metabolic Activation: RAT, LIVER, S-9, AROCLOR 1254 (30%), Method: PREINCUBATION): inactive; negative | mutagenic call (Test System: AMES SALMONELLA TYPHIMURIUM, Strain/Indicator: TA1537, Metabolic Activation: RAT, LIVER, S-9, PHENOBARBITAL AND BETA-NAPHTHOFLAVONE, Method: PREINCUBATION): inactive; negative | mutagenic call (Test System: E. COLI, Strain/Indicator: WP2UVRA/PKM101, Metabolic Activation: NONE, Method: PREINCUBATION): inactive; negative | mutagenic call (Test System: E. COLI, Strain/Indicator: WP2UVRA/PKM101, Metabolic Activation: RAT, LIVER, S-9, PHENOBARBITAL AND BETA-NAPHTHOFLAVONE, Method: PREINCUBATION): inactive; negative | mutagenic call (Test System: E. COLI, Strain/Indicator: WP2UVRA, Metabolic Activation: NONE, Method: PREINCUBATION): inactive; negative | mutagenic call (Test System: E. COLI, Strain/Indicator: WP2UVRA, Metabolic Activation: RAT, LIVER, S-9, PHENOBARBITAL AND BETA-NAPHTHOFLAVONE, Method: PREINCUBATION): inactive; negative | mutagenic call (Test System: Mouse lymphoma, Strain/Indicator: L5178Y (tk+/tk-)/Trifluorothymidine, Metabolic Activation: None, Method: Microtiter): active; positive

CCOC1=CC(=O)C(NC(C)=O)=CC1=O
mutagenic call [1]: active; positive | mutagenic call [2]: active; positive

O=NN(c1ccc([N+](=O)[O-])cc1)C1OC[C@@H](O)[C@H](O)[C@@H]1O (stereo partly drawn)
mutagenic call [2]: active; positive

CCNc1nc(Cl)nc(NCC)n1
mutagenic call (Test System: AMES SALMONELLA TYPHIMURIUM, Strain/Indicator: TA97, Metabolic Activation: NONE, Method: STANDARD PLATE): inactive; negative | mutagenic call (Test System: AMES SALMONELLA TYPHIMURIUM, Strain/Indicator: TA97, Metabolic Activation: RAT, LIVER, S-9, AROCLOR 1254, Method: STANDARD PLATE): inactive; negative | mutagenic call [1]: inactive; negative | mutagenic call (Test System: AMES SALMONELLA TYPHIMURIUM, Strain/Indicator: TA98, Metabolic Activation: RAT, LIVER, S-9, AROCLOR 1254, Method: STANDARD PLATE): inactive; negative | mutagenic call [2]: inactive; negative | mutagenic call (Test System: AMES SALMONELLA TYPHIMURIUM, Strain/Indicator: TA100, Metabolic Activation: RAT, LIVER, S-9, AROCLOR 1254, Method: STANDARD PLATE): inactive; negative | mutagenic call (Test System: AMES SALMONELLA TYPHIMURIUM, Strain/Indicator: TA102, Metabolic Activation: NONE, Method: STANDARD PLATE): inactive; negative | mutagenic call (Test System: AMES SALMONELLA TYPHIMURIUM, Strain/Indicator: TA102, Metabolic Activation: RAT, LIVER, S-9, AROCLOR 1254, Method: STANDARD PLATE): inactive; negative

[CH]#[W]
mutagenic call (End Point: IN VITRO MICRONUCLEUS, Test System: HUMAN LYMPHOCYTES, Metabolic Activation: NONE): active; positive
